Among the data in patent US20240150293A1, “SPIROCYCLOHEXANE DERIVATIVES, PHARMACEUTICAL COMPOSITIONS CONTAINING THEM AND THEIR USES AS ANTI-APOPTOTIC INHIBITORS” (LES LABORATOIRES SERVIER, priority 2021, published 2024) are inhibition, IC50 and Ki values, retold here.

Experiment [1] addresses Cy5-labelled Mcl1 (amino acids 171-321) C286S protein (UniProtKB Q07820) (Homo sapiens (Human), UniProt Q07820, C286S). As to the kind of experiment: Inhibition of Mcl-1 by the fluorescence quenching assay (Example A, Method B). It is filed as binding. As to conditions: for inhibition at 1 µM: read-out: Mcl-1 inhibition, % at a single concentration. In a few lines: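 Eleven-point compound series incubated 2 h at room temperature with 1 nM Cy5-tagged protein and quencher-labelled PUMA peptide at 10, 20 or 400 nM in HEPES/NaCl/Tween 20, pH 7.4, 5% DMSO. IC50 for 50% fluorescence increase by 4-parameter fit, then Ki derived (complete cKi or estimated eKi).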

The test system of the next experiment is NCI-H929 cell lines. Put plainly: In vitro cytotoxicity, CellTiter-Glo (CTG) assay (Example B, Method B). The experiment is classed as cell-based. As to conditions: Homo sapiens, NCI-H929, 48 h, NCI-H929 cells, 48 h incubation, read-out: C50. In a few lines:
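ATP-based luminescence (CellTiter-Glo) after 48 h incubation at 37° C., 5% CO2 gave NCI-H929 viability. Eleven concentrations tested, highest final 30 μM, dispensed acoustically from 10 mM DMSO stocks; C50 defined as concentration reaching 50% viability.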
A general note: Cellular ATP, detected with luciferase, serves as a proxy for viable cell number.

Structures are written as SMILES.

Sequence of Cy5-labelled Mcl1 (amino acids 171-321) C286S protein (Q07820 171-321 C286S): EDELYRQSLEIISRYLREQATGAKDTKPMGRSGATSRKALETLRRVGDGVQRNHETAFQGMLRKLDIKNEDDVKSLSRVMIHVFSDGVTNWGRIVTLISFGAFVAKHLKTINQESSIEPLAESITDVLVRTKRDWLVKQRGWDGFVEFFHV

Take `CCN(CC)C(=O)OC(C)OC(=O)[C@]1(Nc2cccc(Cl)c2)CC[C@@]2(CC1)c1cc3c(cc1C[C@@H]2C[C@@H](C)COc1ccnc2c1[C@H](C)CCC2)OCO3` (stereo partly drawn) [Example 949, 1-[(diethylcarbamoyl)oxy]ethyl (1r,4S,6′S)-4-(3-chloroanilino)-6′-[(2R)-2-methyl-3-{[(5R)-5-methyl-5,6,7,8-tetrahydroquinolin-4-yl]oxy}propyl]-6′,7′-dihydro-2′H-spiro[cyclohexane-1,5′-indeno[5,6-d][1,3]dioxole]-4-carboxylate]: in experiment [1], the inhibition at 1 µM was 13.6%. For the same molecule, the IC50 in the experiment with NCI-H929 cell lines was more than 30000 nM.

In the case of `CCN(CC)C(=O)OCOC(=O)[C@]1(Nc2cccc(Cl)c2)CC[C@@]2(CC1)c1cc3c(cc1C[C@@H]2C[C@@H](C)COc1ccnc2c1[C@H](C)CCC2)OCO3` [Example 950, [(diethylcarbamoyl)oxy]methyl (1r,4S,6′S)-4-(3-chloroanilino)-6′-[(2R)-2-methyl-3-{[(5R)-5-methyl-5,6,7,8-tetrahydroquinolin-4-yl]oxy}propyl]-6′,7′-dihydro-2′H-spiro[cyclohexane-1,5′-indeno[5,6-d][1,3]dioxole]-4-carboxylate], the inhibition at 1 µM in experiment [1] stood at 7.1%. The IC50 in the experiment with NCI-H929 cell lines is more than 30000 nM.

The Ki is a dissociation constant, usually derived from enzyme kinetics or from competition with a known ligand. As for `C[C@@H](COc1ccnc2c1[C@H](C)CCC2)C[C@H]1Cc2cc3c(cc2[C@]12CC[C@@](Nc1cccc(Cl)c1)(C(=O)OCOP(=O)(OC(C)(C)C)OC(C)(C)C)CC2)OCO3` [Example 951, [(di-tert-butoxyphosphoryl)oxy]methyl (1r,4S,6′S)-4-(3-chloroanilino)-6′-[(2R)-2-methyl-3-{[(5R)-5-methyl-5,6,7,8-tetrahydroquinolin-4-yl]oxy}propyl]-6′,7′-dihydro-2′H-spiro[cyclohexane-1,5′-indeno[5,6-d][1,3]dioxole]-4-carboxylate], the Ki in experiment [1] came to 36.9 nM. Also, the IC50 with NCI-H929 cell lines amounted to 1790 nM.

As to `C[C@@H](COc1ccnc2c1[C@H](C)CCC2)C[C@H]1Cc2cc3c(cc2[C@]12CC[C@@](Nc1cccc(Cl)c1)(C(=O)OCOP(=O)(O)O)CC2)OCO3` [Example 952, (phosphonooxy)methyl (1r,4S,6′S)-4-(3-chloroanilino)-6′-[(2R)-2-methyl-3-{[(5R)-5-methyl-5,6,7,8-tetrahydroquinolin-4-yl]oxy}propyl]-6′,7′-dihydro-2′H-spiro[cyclohexane-1,5′-indeno[5,6-d][1,3]dioxole]-4-carboxylate], the Ki in experiment [1] came to 0.371 nM. Besides, in the experiment on NCI-H929 cell lines, the IC50 was 96 nM.

As for `C[C@@H](COc1ccnc2c1[C@H](C)CCC2)C[C@H]1Cc2cc3c(cc2[C@]12CC[C@@](Nc1cccc(Cl)c1)(C(=O)NS(C)(=O)=O)CC2)OCO3` [Example 957, (1r,4S,6′S)-4-(3-chloroanilino)-N-(methanesulfonyl)-6′-[(2R)-2-methyl-3-{[(5R)-5-methyl-5,6,7,8-tetrahydroquinolin-4-yl]oxy}propyl]-6′,7′-dihydro-2′H-spiro[cyclohexane-1,5′-indeno[5,6-d][1,3]dioxole]-4-carboxamide], the Ki in experiment [1] was 6.24 nM. Also, in the experiment on NCI-H929 cell lines, the IC50 was 4700 nM.

On to `C[C@@H](COc1ccnc2c1[C@H](C)CC[C@H]2O)C[C@H]1Cc2cc3c(cc2[C@]12CC[C@@](Nc1cccc(Cl)c1)(C(=O)O)CC2)OCO3` [Example 959, (1r,4S,6′S)-4-(3-chloroanilino)-6′-[(2R)-3-{[(5R,8R)-8-hydroxy-5-methyl-5,6,7,8-tetrahydroquinolin-4-yl]oxy}-2-methylpropyl]-6′,7′-dihydro-2′H-spiro[cyclohexane-1,5′-indeno[5,6-d][1,3]dioxole]-4-carboxylic acid], for which the Ki in experiment [1] stood at 0.0117 nM. Also, the IC50 with NCI-H929 cell lines came out at 28.7 nM.

Take `C[C@@H](COc1ccnc2c1[C@H](C)CC[C@H]2C)C[C@H]1Cc2cc3c(cc2[C@]12CC[C@@](Nc1cccc(Cl)c1)(C(=O)O)CC2)OCO3` [Example 960, (1r,4S,6′S)-4-(3-chloroanilino)-6′-[(2R)-3-{[(5R,8R)-5,8-dimethyl-5,6,7,8-tetrahydroquinolin-4-yl]oxy}-2-methylpropyl]-6′,7′-dihydro-2′H-spiro[cyclohexane-1,5′-indeno[5,6-d][1,3]dioxole]-4-carboxylic acid]: in experiment [1], the Ki was found to be 0.0834 nM. Further, the IC50 in the experiment on NCI-H929 cell lines came to 77.5 nM.

Take `C[C@@H](COc1ccnc2c1[C@H](C)CC[C@H]2F)C[C@H]1Cc2cc3c(cc2[C@]12CC[C@@](Nc1cccc(Cl)c1)(C(=O)O)CC2)OCO3` [Example 961, (1r,4S,6′S)-4-(3-chloroanilino)-6′-[(2R)-3-{[(5R,8R)-8-fluoro-5-methyl-5,6,7,8-tetrahydroquinolin-4-yl]oxy}-2-methylpropyl]-6′,7′-dihydro-2′H-spiro[cyclohexane-1,5′-indeno[5,6-d][1,3]dioxole]-4-carboxylic acid]: the Ki in experiment [1] amounted to 0.0308 nM. In the experiment with NCI-H929 cell lines, the IC50 was 98.8 nM.

With `C[C@@H](COc1ccnc2c1[C@H](C)CC[C@H]2O)C[C@H]1Cc2cc3c(cc2[C@]12CC[C@@](Nc1cccc(Cl)c1)(C(=O)O)CC2)OCCO3` [Example 962, (1r,4S,7′S)-4-(3-chloroanilino)-7′-[(2R)-3-{[(5R,8R)-8-hydroxy-5-methyl-5,6,7,8-tetrahydroquinolin-4-yl]oxy}-2-methylpropyl]-2′,3′,7′,8′-tetrahydrospiro[cyclohexane-1,6′-indeno[5,6-b][1,4]dioxine]-4-carboxylic acid], the Ki in experiment [1] came to 0.0109 nM. In addition, in the experiment on NCI-H929 cell lines, the IC50 was determined as 42.8 nM.

Turning to `C[C@@H](COc1ccnc2c1[C@H](C)CC[C@H]2C)C[C@H]1Cc2cc3c(cc2[C@]12CC[C@@](Nc1cccc(Cl)c1)(C(=O)O)CC2)OCCO3` [Example 963, (1r,4S,7′S)-4-(3-chloroanilino)-7′-[(2R)-3-{[(5R,8R)-5,8-dimethyl-5,6,7,8-tetrahydroquinolin-4-yl]oxy}-2-methylpropyl]-2′,3′,7′,8′-tetrahydrospiro[cyclohexane-1,6′-indeno[5,6-b][1,4]dioxine]-4-carboxylic acid], in experiment [1], the Ki turned out to be 0.0235 nM. Besides, the IC50 in the experiment with NCI-H929 cell lines came out at 97.3 nM.

For `C[C@@H](COc1ccnc2c1[C@H](C)CC[C@H]2F)C[C@H]1Cc2cc3c(cc2[C@]12CC[C@@](Nc1cccc(Cl)c1)(C(=O)O)CC2)OCCO3` [Example 964, (1r,4S,7′S)-4-(3-chloroanilino)-7′-[(2R)-3-{[(5R,8R)-8-fluoro-5-methyl-5,6,7,8-tetrahydroquinolin-4-yl]oxy}-2-methylpropyl]-2′,3′,7′,8′-tetrahydrospiro[cyclohexane-1,6′-indeno[5,6-b][1,4]dioxine]-4-carboxylic acid], the Ki in experiment [1] was 0.0579 nM. In addition, the IC50 in the experiment on NCI-H929 cell lines worked out at 109 nM.

Take `C[C@@H](COc1ccnc2c1[C@H](C)CCC2)C[C@H]1Cc2cc3c(cc2[C@]12CC[C@@](Nc1cccc(Cl)c1)(C(=O)O)CC2)OC[C@H](C)O3` [Example 971, (1r,2′S,4S,7′S)-4-(3-chloroanilino)-2′-methyl-7′-[(2R)-2-methyl-3-{[(5R)-5-methyl-5,6,7,8-tetrahydroquinolin-4-yl]oxy}propyl]-2′,3′,7′,8′-tetrahydrospiro[cyclohexane-1,6′-indeno[5,6-b][1,4]dioxine]-4-carboxylic acid]: in experiment [1], the Ki was determined as 0.0143 nM. Besides, the IC50 in the experiment on NCI-H929 cell lines was determined as 41 nM.

Consider `C[C@@H](COc1ccnc2c1[C@H](C)CCC2)C[C@H]1Cc2cc3c(cc2[C@]12CC[C@@](Nc1cccc(Cl)c1)(C(=O)O)CC2)O[C@@H](C)CO3` [Example 972, (1r,3'S,4S,7′S)-4-(3-chloroanilino)-3′-methyl-7′-[(2R)-2-methyl-3-{[(5R)-5-methyl-5,6,7,8-tetrahydroquinolin-4-yl]oxy}propyl]-2′,3′,7′,8′-tetrahydrospiro[cyclohexane-1,6′-indeno[5,6-b][1,4]dioxine]-4-carboxylic acid], for which the inhibitory constant (Ki) in experiment [1] was 0.00893 nM. Also, the IC50 with NCI-H929 cell lines was determined as 31 nM.

As for `C[C@@H](COc1ccnc2c1[C@H](C)CCC2)C[C@H]1Cc2cc3c(cc2[C@]12CC[C@@](Nc1cccc(Cl)c1)(C(=O)O)CC2)O[C@H](C)CO3` [Example 973, (1r,3′R,4S,7′S)-4-(3-chloroanilino)-3′-methyl-7′-[(2R)-2-methyl-3-{[(5R)-5-methyl-5,6,7,8-tetrahydroquinolin-4-yl]oxy}propyl]-2′,3′,7′,8′-tetrahydrospiro[cyclohexane-1,6′-indeno[5,6-b][1,4]dioxine]-4-carboxylic acid], the Ki in experiment [1] came out at 0.0118 nM. The IC50 in the experiment on NCI-H929 cell lines is 34.3 nM.

For the molecule `C[C@@H](COc1ccnc2c1[C@H](C)CCC2)C[C@H]1Cc2cc3c(cc2[C@]12CC[C@@](Nc1cccc(Cl)c1)(C(=O)O)CC2)OC[C@@H](C)O3` [Example 974, (1r,2′R,4S,7′S)-4-(3-chloroanilino)-2′-methyl-7′-[(2R)-2-methyl-3-{[(5R)-5-methyl-5,6,7,8-tetrahydroquinolin-4-yl]oxy}propyl]-2′,3′,7′,8′-tetrahydrospiro[cyclohexane-1,6′-indeno[5,6-b][1,4]dioxine]-4-carboxylic acid], the Ki in experiment [1] amounted to 0.023 nM. Besides, the IC50 with NCI-H929 cell lines was 60.4 nM.

Regarding `C[C@@H](COc1ccnc2c1[C@H](C)CCC2)C[C@H]1Cc2cc3c(cc2[C@]12CC[C@@](Nc1cccc(Cl)c1)(C(=O)O)CC2)O[C@@H](C)[C@H](C)O3` [Example 975, (1r,2′S,3'S,4S,7′S)-4-(3-chloroanilino)-2′,3′-dimethyl-7′-[(2R)-2-methyl-3-{[(5R)-5-methyl-5,6,7,8-tetrahydroquinolin-4-yl]oxy}propyl]-2′,3′,7′,8′-tetrahydrospiro[cyclohexane-1,6′-indeno[5,6-b][1,4]dioxine]-4-carboxylic acid], the Ki in experiment [1] amounted to 0.0244 nM. For the same molecule, the IC50 with NCI-H929 cell lines was determined as 80.2 nM.
